How the values were obtained:
[1] = system: MDA468 (human breast cancer cell); assay: Cell proliferation (MTS) assay, MDA468; assay type: cell-based; details: three days treatment
Outline: (§1)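 Cells plated at about 3000 per well in RPMI-1640/10% FBS were dosed with compound one day later. Viability was read by MTS conversion (absorbance 490 nm, 1–2 h) three days after treatment began. Effect is expressed as percent of vehicle-treated growth on the same plate.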

HCT116 cells = assay: Apoptosis assay (Apo-ONE Caspase-3/7), HCT116; assay type: cell-based, human
Procedure: Cells are plated in a 96-well plate at a density of 3000 cells per well. 24 hr later cells are treated with single agent or combination as indicated. Apoptosis is measured at 24 hr and 48 hr post drug treatment by Apo-ONE Caspase-3/7 assay kit (cat # G7791, Promega Corp.) following the protocol provided by the vendor. Assay mix is added to cells and incubated at room temperature for 3 hours with gentle mixing using a plate shaker. The fluorescence of each well is read using the Victor Wallac Plate Reader. Each experimental plate contains blank wells (without cells) as background fluorescence that is subtracted from all wells to obtain experimental values. Data are expressed as relative fluorescent units (RFLU) or as Apo-ONE units.

[2] = system: DU145 (human prostate carcinoma/lymphocytic leukemia); assay: Cell proliferation (MTS) assay, DU145; assay type: cell-based; details: three days treatment
Outline: as §1

[3] = system: HER2/Neu-overexpressing MDA361-DYT2 breast tumor cells; assay: Tumor cell growth assay, HKI-272 and combination, MDA361-DYT2; assay type: cell-based, human; details: compound 4 at 0.1 μg/ml; MDA361-DYT2
Procedure: (§2) Human tumor cell are all obtained from ATCC, and are cultured using standard cell culture methods. Cells are plated in 96-well culture plates at 1000 to 3000 cells per well. One day following plating, cells are treated with various doses of PI3K inhibitor Compound 4 or Compound 5 alone or with a low constant dose of MEK inhibitor 2-(2-chloro-4-iodoanilino)-N-(cycloprorylmethoxy-3,4-difluobenzamide) (1 μg/ml) or UO126 (5 μg/ml). UO126 is also known as 1,4-diamino-2,3-dicyano-1,4-bis[2-aminophenylthio]butadiene. In some experiments, cells are treated alone with various doses of the MEK inhibitor (2-(2-chloro-4-iodoanilino)-N-(cycloprorylmethoxy-3,4-difluobenzamide)), or HER2/neu inhibitor HKI-272, or mTOR inhibitor CCI-779, or with a low constant dose of Compound 4 (0.1 μg/ml). […] Three days after drug treatment, viable cell densities are determined by metabolic conversion (by viable cells) of the dye MTS, an established cell proliferation assay. […] The MTS assay results are read in a 96-well plate reader by measuring absorbance at 490 nm. The effect of each treatment is calculated as percent of control growth relative to the vehicle DMSO-treated cells grown in the same culture plate. […]

[4] = system: colon carcinoma, NSCLC, DU145 and MDA231 cell lines; assay: Tumor cell growth assay, combination with MEK inhibitors, tumor line panel; assay type: cell-based, human; details: HCT116, HT29, SW620, SW480, LS-174T, Caco2, Lovo, A549, H157, DU145, MDA231
Procedure: as §2

[5] = system: MDA435 (human breast adenocarcinoma); assay: Cell proliferation (MTS) assay, MDA435; assay type: cell-based; details: three days treatment
Outline: as §1

SMILES: COC[C@H]1OC(=O)/C(=C/N(CCO)C(C)(C)C)C2=C(O)C(=O)C3=C([C@H](OC(C)=O)C[C@@]4(C)C3CC[C@@H]4O)[C@]21C (stereo partly drawn) [Compound 4, (1E,4S,4aR,5R,6aS,7S)-1-{[tert-butyl(2-hydroxyethyl)amino]methylene}-7,11-dihydroxy-4-(methoxymethyl)-4a,6a-dimethyl-2,10-dioxo-1,2,4,4a,5,6,6a,7,8,9,9a,10-dodecahydroindeno[4,5-h]isochromen-5-yl acetate]
- MDA468 IC50 ([1]; Table 1): 0.3 µg/mL
- MDA468 IC50 ([1]; Table 2): 0.51 µg/mL
- induction of apoptosis in combination with MEK inhibitor 2-(2-chloro-4-iodoanilino)-N-(cycloprorylmethoxy-3,4-difluobenzamide) (HCT116 cells): synergistic induction of apoptosis
- DU145 IC50 ([2]; Table 1): 1.5 µg/mL
- DU145 IC50 ([2]; Table 2): 1 µg/mL
- growth inhibition in combination with HER2/neu inhibitor HKI-272 [3]: synergistically inhibited growth
- growth inhibition in combination with MEK inhibitors UO126 and 2-(2-chloro-4-iodoanilino)-N-(cycloprorylmethoxy-3,4-difluobenzamide) [4]: broad synergistic growth inhibition
- MDA435 IC50 ([5]; Table 1): 6 µg/mL
- MDA435 IC50 ([5]; Table 2): 3.5 µg/mL
